Publication PMC7411887, “New Paracyclophanylthiazoles with Anti-Leukemia Activity: Design, Synthesis, Molecular Docking, and Mechanistic Studies” (Molecules, 2020)

Key:
Assay in all cases: NCI five-dose assay
Format in all cases: cell-based
[1] = tested on: UO-31; conditions: Renal Cancer UO-31
[2] = tested on: MDA-MB-435; conditions: Homo sapiens, Melanoma MDA-MB-435
[3] = tested on: CCRF-CEM; conditions: Homo sapiens, Leukemia CCRF-CEM
[4] = read-out: GI50 Concentration/Cell Line

COC(=O)C=C1SC(=NNC(=O)c2cc3ccc2CCc2ccc(cc2)CC3)N(c2ccccc2)C1=O [Compound 3a]
LC50 ([1]; Homo sapiens): 6.2 µM | GI50 ([1]; Homo sapiens, read-out: GI50 Concentration/Cell Line): 1.53 µM | TGI Concentration/Cell Line [1]: 3.08 µM | LC50 (concentration causing 50% net cell kill) [2]: > 100 µM | GI50 [2, 4]: 5.44 µM | LC50 [3]: > 100 µM | GI50 [3, 4]: 2.71 µM
